In the experiment the test system is 22RV1 cells. The experiment can be described thus: Experiment 2 on inhibiting 22RV1 cell proliferation (7 days, CellTiter-Glo). It is filed as cell-based. The note with it: 1% css-FBS phenol red-free medium, incubated with compound 7 days, read-out: IC50 values on proliferation inhibition of 22RV1 cells. As for the experimental part: Prostate cancer cells 22RV1 were purchased from ATCC, the cell medium was RPMI 1640+10% FBS, and the cells were cultured in an incubator at 37° C. under 5% CO2. On day 1, the cells in an exponential phase were collected. With a 1% css-FBS phenol red-free medium, the cell suspension was adjusted to a corresponding concentration, plated at 2000 cells/well and incubated overnight. On day 2, compounds at different concentrations were added, and the plate was placed in the incubator and incubated for further 7 days. After the incubation was completed, according to operation instructions for a CellTiter-Glo kit (Promega, G7573), 50 μL of CTG solution, which was already pre-melted and equilibrated to room temperature, was added to each well, and the mixtures were uniformly mixed for 2 min using a microplate shaker. The plate was placed at room temperature for 10 min, and then fluorescence signal values were measured using a microplate reader (PHERAstar FSX). The results were processed according to formula (2), the survival rate of the compound at different concentrations was calculated, and the IC50 value of the compound with a survival rate of 50% was calculated using origin9.2 software with DoseResp function, wherein RLU compound was the readout of the treated group, and RLU control was the average value of the DMSO vehicle control group.
On the technique in general: ATP-based viability assays read luminescence as a measure of living cells.

Counter-ions that a name gives are not always drawn. Like-named read-outs stand apart in the source and are kept apart here.

Take `CC(C)(c1ccc(OCc2ccnc(N3CCC4(CC3)CN(C3CCN(CC5CCN(c6ccc7c(c6)C(=O)N(C6CCC(=O)NC6=O)C7=O)CC5)CC3)C4)n2)cc1)c1cc(Cl)c(OCCCl)c(C#N)c1` (stereo not shown) [Compound 21, 3-chloro-2-(2-chloroethoxy)-5-(2-(4-((2-(2-(1-((1-(2-(2,6-dioxopiperidin-3-yl)-1,3-dioxoisoindolin-5-yl)piperidin-4-yl)methyl)piperidin-4-yl)-2,7-diazaspiro[3.5]nonan-7-yl)pyrimidin-4-yl)methoxy)phenyl)propan-2-yl)benzonitrile]: the IC50 came to 507 nM.
As for `Cn1c(=O)n(C2CCC(=O)NC2=O)c2cccc(N3CCC(C4CCN(CC5CCN(c6nccc(COc7ccc(C(C)(C)c8cc(Cl)cc(C#N)c8)cc7)n6)CC5)CC4)CC3)c21` (stereo not shown) [Compound 85 trifluoroacetate, 3-chloro-5-(2-(4-((2-(4-((1′-(1-(2,6-dioxopiperidin-3-yl)-3-methyl-2-oxo-2,3-dihydro-1H-benzo[d]imidazol-4-yl)-[4,4′-bipiperidin]-1-yl)methyl)piperidin-1-yl)pyrimidin-4-yl)methoxy)phenyl)propan-2-yl)benzonitrile], the IC50 (Homo sapiens, 22Rv1, 168 h) was found to be 316 nM.
Regarding `Cc1ncsc1-c1ccc([C@H](C)NC(=O)[C@@H]2C[C@@H](O)CN2C(=O)[C@@H](NC(=O)CN2CCC(N3CCC(CN4CCN(c5nccc(COc6ccc(C(C)(C)c7cc(Cl)cc(C#N)c7)cc6)n5)CC4)CC3)CC2)C(C)(C)C)cc1` [Compound 43 trifluoroacetate, (2S,4R)-1-((S)-2-(2-(4-((4-(4-((4-(2-(3-chloro-5-cyanophenyl)propan-2-yl)phenoxy)methyl)pyrimidin-2-yl)piperazin-1-yl)methyl)-[1,4′-bipiperidin]-1′-yl)acetamido)-3,3-dimethylbutanoyl)-4-hydroxy-N-((S)-1-(4-(4-methylthiazol-5-yl)phenyl)ethyl)pyrrolidine-2-carboxamide], the IC50 (Homo sapiens, 22Rv1, 168 h) is 94 nM.
As for `CC(C)(c1ccc(OCc2ccnc(N3CC4CN(CC5CCN(c6ccc7c(c6)C(=O)N(C6CCC(=O)NC6=O)C7=O)CC5)CC4C3)n2)cc1)c1cc(Cl)cc(C#N)c1` (stereo not shown) [Compound 72 trifluoroacetate, 3-chloro-5-(2-(4-((2-(5-((1-(2-(2,6-dioxopiperidin-3-yl)-1,3-dioxoisoindolin-5-yl)piperidin-4-yl)methyl)hexahydropyrrolo[3,4-c]pyrrol-2(1H)-yl)pyrimidin-4-yl)methoxy)phenyl)propan-2-yl)benzonitrile], under “Homo sapiens, 22Rv1, 168 h”, the IC50 was found to be 464 nM.
Consider `Cn1c(=O)n(C2CCC(=O)NC2=O)c2ccc(N3CCC(C4CCN(CC5CN(c6nccc(COc7ccc(C(C)(C)c8cc(Cl)cc(C#N)c8)cc7)n6)C5)CC4)CC3)cc21` (stereo not shown) [Compound 103 trifluoroacetate, 3-chloro-5-(2-(4-((2-(3-((1′-(1-(2,6-dioxopiperidin-3-yl)-3-methyl-2-oxo-2,3-dihydro-1H-benzo[d]imidazol-5-yl)-[4,4′-bipiperidin]-1-yl)methyl)azetidin-1-yl)pyrimidin-4-yl)methoxy)phenyl)propan-2-yl)benzonitrile], for which, where the note is “Homo sapiens, 22Rv1, 168 h”, the IC50 was determined as 823 nM.
As to `CC(C)(c1ccc(OCc2ccnc(N3CCN(C4CN(CC5CN(c6ccc7c(c6)C(=O)N(C6CCC(=O)NC6=O)C7=O)C5)C4)CC3)n2)cc1)c1cc(Cl)cc(C#N)c1` (stereo not shown) [Compound 57 trifluoroacetate, 3-chloro-5-(2-(4-((2-(4-(1-((1-(2-(2,6-dioxopiperidin-3-yl)-1,3-dioxoisoindolin-5-yl)azetidin-3-yl)methyl)azetidin-3-yl)piperazin-1-yl)pyrimidin-4-yl)methoxy)phenyl)propan-2-yl)benzonitrile], the IC50 (Homo sapiens, 22Rv1, 168 h) was found to be 687 nM.
Regarding `CC(C)(c1ccc(OCc2ccnc(N3CC(N4CCC(CN5CCN(c6cccc7c6C(=O)N(C6CCC(=O)NC6=O)C7=O)CC5)CC4)C3)n2)cc1)c1cc(Cl)cc(C#N)c1` (stereo not shown) [Compound 48 trifluoroacetate, 3-chloro-5-(2-(4-((2-(3-(4-((4-(2-(2,6-dioxopiperidin-3-yl)-1,3-dioxoisoindolin-4-yl)piperazin-1-yl)methyl)piperidin-1-yl)azetidin-1-yl)pyrimidin-4-yl)methoxy)phenyl)propan-2-yl)benzonitrile], the IC50 (Homo sapiens, 22Rv1, 168 h) amounted to 608 nM.
For `COc1c(Cl)cc(C(C)(C)c2ccc(OCc3ccnc(N4CCC(CN5CCC(c6ccc7c(c6)n(C)c(=O)n7C6CCC(=O)NC6=O)CC5)CC4)n3)cc2)cc1C#N` (stereo not shown) [Compound 92 trifluoroacetate, 3-chloro-5-(2-(4-((2-(4-((4-(1-(2,6-dioxopiperidin-3-yl)-3-methyl-2-oxo-2,3-dihydro-1H-benzo[d]imidazol-5-yl)piperidin-1-yl)methyl)piperidin-1-yl)pyrimidin-4-yl)methoxy)phenyl)propan-2-yl)-2-methoxybenzonitrile], the IC50 (Homo sapiens, 22Rv1, 168 h) was 900 nM.
Consider `Cn1c(=O)n(C2CCC(=O)NC2=O)c2cccc(C3CCN(CC4(F)CCN(C5CCN(c6nccc(COc7ccc(C(C)(C)c8cc(Cl)cc(C#N)c8)cc7)n6)CC5)CC4)CC3)c21` (stereo not shown) [Compound 124 trifluoroacetate, 3-chloro-5-(2-(4-((2-(4-((4-(1-(2,6-dioxopiperidin-3-yl)-3-methyl-2-oxo-2,3-dihydro-1H-benzo[d]imidazol-4-yl)piperidin-1-yl)methyl)-4-fluoro-[1,4′-bipiperidin]-1′-yl)pyrimidin-4-yl)methoxy)phenyl)propan-2-yl)benzonitrile], for which the IC50 (Homo sapiens, 22Rv1, 168 h) came to 576 nM.
Turning to `Cn1c(=O)n(C2CCC(=O)NC2=O)c2ccc(C3CCN(C4CCC5(CC4)CN(c4nccc(COc6ccc(C(C)(C)c7cc(Cl)cc(C#N)c7)cc6)n4)C5)CC3)cc21` (stereo not shown) [Compound 122 trifluoroacetate, 3-chloro-5-(2-(4-((2-(7-(4-(1-(2,6-dioxopiperidin-3-yl)-3-methyl-2-oxo-2,3-dihydro-1H-benzo[d]imidazol-5-yl)piperidin-1-yl)-2-azaspiro[3.5]nonan-2-yl)pyrimidin-4-yl)methoxy)phenyl)propan-2-yl)benzonitrile], under “Homo sapiens, 22Rv1, 168 h”, the IC50 turned out to be 1010 nM.
Consider `CC(C)(c1ccc(OCc2ccnc(N3CCN(C4CN(C5CC6(CCN(c7ccc8c(c7)C(=O)N(C7CCC(=O)NC7=O)C8=O)CC6)C5)C4)CC3)n2)cc1)c1cc(Cl)cc(C#N)c1` (stereo not shown) [Compound 53 trifluoroacetate, 3-chloro-5-(2-(4-((2-(4-(1-(7-(2-(2,6-dioxopiperidin-3-yl)-1,3-dioxoisoindolin-5-yl)-7-azaspiro[3.5]nonan-2-yl)azetidin-3-yl)piperazin-1-yl)pyrimidin-4-yl)methoxy)phenyl)propan-2-yl)benzonitrile], for which the IC50 (Homo sapiens, 22Rv1, 168 h) worked out at 623 nM.
On to `CC(C)(c1ccc(OCc2ccnc(N3CC4(CCN(CC5CN(c6ccc7c(c6)C(=O)N(C6CCC(=O)NC6=O)C7=O)C5)CC4)C3)n2)cc1)c1cc(Cl)cc(C#N)c1` (stereo not shown) [Compound 70 trifluoroacetate, 3-chloro-5-(2-(4-((2-(7-((1-(2-(2,6-dioxopiperidin-3-yl)-1,3-dioxoisoindolin-5-yl)azetidin-3-yl)methyl)-2,7-diazaspiro[3.5]nonan-2-yl)pyrimidin-4-yl)methoxy)phenyl)propan-2-yl)benzonitrile], for which the IC50 (Homo sapiens, 22Rv1, 168 h) was 612 nM.
For the compound `CC(C)(c1ccc(OCc2ccnc(N3CCN(C4CC5(CCN(C6CC7(CCN(c8ccc9c(c8)C(=O)N(C8CCC(=O)NC8=O)C9=O)CC7)C6)CC5)C4)CC3)n2)cc1)c1cc(Cl)cc(C#N)c1` (stereo not shown) [Compound 59 trifluoroacetate, 3-chloro-5-(2-(4-((2-(4-(7-(2-(2,6-dioxopiperidin-3-yl)-1,3-dioxoisoindolin-5-yl)-7,7′-diaza[2,7′-bispiro[3.5]nonan]-2′-yl)piperazin-1-yl)pyrimidin-4-yl)methoxy)phenyl)propan-2-yl)benzonitrile], for the setting “Homo sapiens, 22Rv1, 168 h”, the IC50 came out at 647 nM.
Same read-out and setting: in the case of `CC(C)(c1ccc(OCc2ccnc(N3CCN(CC4CCN(C5CCCN(c6ccc7c(c6)C(=O)N(C6CCC(=O)NC6=O)C7=O)C5)C4)CC3)n2)cc1)c1cc(Cl)cc(C#N)c1` (stereo not shown) [Compound 67 trifluoroacetate, 3-chloro-5-(2-(4-((2-(4-((1-(1-(2-(2,6-dioxopiperidin-3-yl)-1,3-dioxoisoindolin-5-yl)piperidin-3-yl)pyrrolidin-3-yl)methyl)piperazin-1-yl)pyrimidin-4-yl)methoxy)phenyl)propan-2-yl)benzonitrile] it was 643 nM; in that of `CC(C)(c1ccc(OCc2ccnc(N3CCN(C4CCN(C5CCC6(CC5)CN(c5ccc7c(c5)C(=O)N(C5CCC(=O)NC5=O)C7=O)C6)CC4)CC3)n2)cc1)c1cc(Cl)cc(C#N)c1` (stereo not shown) [Compound 46 trifluoroacetate, 3-chloro-5-(2-(4-((2-(4-(1-(2-(2-(2,6-dioxopiperidin-3-yl)-1,3-dioxoisoindolin-5-yl)-2-azaspiro[3.5]nonan-7-yl)piperidin-4-yl)piperazin-1-yl)pyrimidin-4-yl)methoxy)phenyl)propan-2-yl)benzonitrile], 461 nM.
Still for that read-out and setting: as for `CC(C)(c1ccc(OCc2ccnc(N3CC4CN(C5CCN(C6CN(c7ccc8c(c7)C(=O)N(C7CCC(=O)NC7=O)C8=O)C6)CC5)CC4C3)n2)cc1)c1cc(Cl)cc(C#N)c1` (stereo not shown) [Compound 81 trifluoroacetate, 3-chloro-5-(2-(4-((2-(5-(1-(1-(2-(2,6-dioxopiperidin-3-yl)-1,3-dioxoisoindolin-5-yl)azetidin-3-yl)piperidin-4-yl)hexahydropyrrolo[3,4-c]pyrrol-2(1H)-yl)pyrimidin-4-yl)methoxy)phenyl)propan-2-yl)benzonitrile], the figure is 484 nM.
